Data on 25 molecules can be found in US20230365592A1 (Agios Pharmaceuticals, Inc., priority 2022, published 2023).

Broadly, the AC50 is the concentration giving half of the maximal activity seen.

The target of the assay is T1, human PAH with the R408W mutation (Homo sapiens, UniProt P00439, R408W).
T1 construct: expressed in transfected cells
T1 sequence (P00439 1-452 R408W): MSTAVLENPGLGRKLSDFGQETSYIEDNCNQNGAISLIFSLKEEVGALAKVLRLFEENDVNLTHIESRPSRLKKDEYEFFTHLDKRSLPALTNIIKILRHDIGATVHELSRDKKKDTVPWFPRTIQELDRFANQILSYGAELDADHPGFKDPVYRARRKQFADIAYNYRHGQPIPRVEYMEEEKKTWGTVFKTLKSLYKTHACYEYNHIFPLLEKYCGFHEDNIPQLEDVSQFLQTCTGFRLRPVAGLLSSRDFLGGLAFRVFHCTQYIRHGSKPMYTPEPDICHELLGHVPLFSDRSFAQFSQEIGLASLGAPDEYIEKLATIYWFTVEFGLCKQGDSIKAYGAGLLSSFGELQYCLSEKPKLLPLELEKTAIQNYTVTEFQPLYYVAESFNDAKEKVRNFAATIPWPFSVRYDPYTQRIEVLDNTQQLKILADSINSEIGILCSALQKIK
Put plainly: Cell Based Phenylalanine Flux Assay.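 Further: after compound treatment, cells received sepiapterin plus isotope-labelled Phenylalanine for 4 hours, then labelled Tyrosine in the medium was quantified, 10-point 2-fold dilution series run in duplicate.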 The following applies: A375 cells expressing human PAH R408W; 24 hrs compound incubation; 13C-Tyrosine by LC-MS; average where tested multiple times; read-out: AC50.
Consider `FC(F)(F)c1cccn2nc([C@H]3c4nc[nH]c4CCN3c3ccccn3)cc12` [Example 1871, (R)-5-(pyridin-2-yl)-4-(4-(trifluoromethyl)pyrazolo[1,5-a]pyridin-2-yl)-4,5,6,7-tetrahydro-1H-imidazo[4,5-c]pyridine], for which the concentration at half-maximal activity (AC50) was greater than 5 µM.

With `Nc1cnc(N2CCc3[nH]cnc3[C@@H]2c2cc3c(Cl)cccn3n2)nc1` [Example 1872, (R)-2-(4-(4-chloropyrazolo[1,5-a]pyridin-2-yl)-1,4,6,7-tetrahydro-5H-imidazo[4,5-c]pyridin-5-yl)pyrimidin-5-amine], the AC50 is greater than 5 µM.

Take `Nc1cnc(N2CCc3[nH]cnc3[C@H]2c2cc3c(Cl)cccn3n2)nc1` [Example 1873, (S)-2-(4-(4-chloropyrazolo[1,5-a]pyridin-2-yl)-1,4,6,7-tetrahydro-5H-imidazo[4,5-c]pyridin-5-yl)pyrimidin-5-amine]: the AC50 was in the range of 0.5 to 1 µM.

For the molecule `CCc1cccn2nc([C@H]3c4nc[nH]c4CCN3C(=O)c3nnc(C4CC4)o3)cc12` [Example 1874, (R)-(5-cyclopropyl-1,3,4-oxadiazol-2-yl)(4-(4-ethylpyrazolo[1,5-a]pyridin-2-yl)-1,4,6,7-tetrahydro-5H-imidazo[4,5-c]pyridin-5-yl)methanone], the AC50 is greater than 5 µM.

For `CCc1cccn2nc([C@@H]3c4nc[nH]c4CCN3C(=O)c3nnc(C4CC4)o3)cc12` [Example 1875, (S)-(5-cyclopropyl-1,3,4-oxadiazol-2-yl)(4-(4-ethylpyrazolo[1,5-a]pyridin-2-yl)-1,4,6,7-tetrahydro-5H-imidazo[4,5-c]pyridin-5-yl)methanone], the AC50 was less than 0.5 µM.

Take `Cn1cc(-c2nnc(C(=O)N3CCc4[nH]cnc4[C@H]3c3cc4c(C5CC5)cccn4n3)o2)cn1` [Example 1876, (S)-(4-(4-cyclopropylpyrazolo[1,5-a]pyridin-2-yl)-1,4,6,7-tetrahydro-5H-imidazo[4,5-c]pyridin-5-yl)(5-(1-methyl-1H-pyrazol-4-yl)-1,3,4-oxadiazol-2-yl)methanone]: the AC50 lay within 0.5 to 1 µM.

Turning to `Cn1cc(-c2nnc(C(=O)N3CCc4[nH]cnc4[C@@H]3c3cc4c(C5CC5)cccn4n3)o2)cn1` [Example 1877, (R)-(4-(4-cyclopropylpyrazolo[1,5-a]pyridin-2-yl)-1,4,6,7-tetrahydro-5H-imidazo[4,5-c]pyridin-5-yl)(5-(1-methyl-1H-pyrazol-4-yl)-1,3,4-oxadiazol-2-yl)methanone], the AC50 was greater than 5 µM.

Turning to `O=C(c1nnc(-c2cnn(C(F)F)c2)o1)N1CCc2[nH]cnc2[C@H]1c1cc2c(C3CC3)cccn2n1` [Example 1878, (S)-(4-(4-cyclopropylpyrazolo[1,5-a]pyridin-2-yl)-1,4,6,7-tetrahydro-5H-imidazo[4,5-c]pyridin-5-yl)(5-(1-(difluoromethyl)-1H-pyrazol-4-yl)-1,3,4-oxadiazol-2-yl)methanone], the AC50 was 0.5 to 1 µM.

In the case of `O=C(c1nnc(-c2ccn(C(F)(F)F)n2)o1)N1CCc2[nH]cnc2[C@H]1c1cc2c(C3CC3)cccn2n1` [Example 1880, (S)-(4-(4-cyclopropylpyrazolo[1,5-a]pyridin-2-yl)-1,4,6,7-tetrahydro-5H-imidazo[4,5-c]pyridin-5-yl)(5-(1-(trifluoromethyl)-1H-pyrazol-3-yl)-1,3,4-oxadiazol-2-yl)methanone], the AC50 is less than 0.5 µM.

In the case of `O=C(c1nnc(-c2ccn(C(F)(F)F)n2)o1)N1CCc2[nH]cnc2[C@@H]1c1cc2c(C3CC3)cccn2n1` [Example 1881, (R)-(4-(4-cyclopropylpyrazolo[1,5-a]pyridin-2-yl)-1,4,6,7-tetrahydro-5H-imidazo[4,5-c]pyridin-5-yl)(5-(1-(trifluoromethyl)-1H-pyrazol-3-yl)-1,3,4-oxadiazol-2-yl)methanone], the AC50 was greater than 5 µM.

For the molecule `CC(C)c1cccn2nc([C@@H]3c4nc[nH]c4CCN3C(=O)c3nnc(C4CC4)o3)cc12` [Example 1882, (S)-(5-cyclopropyl-1,3,4-oxadiazol-2-yl)(4-(4-isopropylpyrazolo[1,5-a]pyridin-2-yl)-1,4,6,7-tetrahydro-5H-imidazo[4,5-c]pyridin-5-yl)methanone], the AC50 was less than 0.5 µM.

Take `CC(C)c1cccn2nc([C@@H]3c4nc[nH]c4CCN3C(=O)c3nnc(C(C)(C)F)o3)cc12` [Example 1884, (S)-(5-(2-fluoropropan-2-yl)-1,3,4-oxadiazol-2-yl)(4-(4-isopropylpyrazolo[1,5-a]pyridin-2-yl)-1,4,6,7-tetrahydro-5H-imidazo[4,5-c]pyridin-5-yl)methanone]: the AC50 is less than 0.5 µM.

For `CC(C)c1cccn2nc([C@H]3c4nc[nH]c4CCN3C(=O)c3nnc(C(C)(C)F)o3)cc12` [Example 1885, (R)-(5-(2-fluoropropan-2-yl)-1,3,4-oxadiazol-2-yl)(4-(4-isopropylpyrazolo[1,5-a]pyridin-2-yl)-1,4,6,7-tetrahydro-5H-imidazo[4,5-c]pyridin-5-yl)methanone], the AC50 is greater than 5 µM.

For the molecule `CC(C)c1cccn2nc([C@@H]3c4nc[nH]c4CCN3C(=O)c3nnc(-c4cnn(C)c4)o3)cc12` [Example 1886, (S)-(4-(4-isopropylpyrazolo[1,5-a]pyridin-2-yl)-1,4,6,7-tetrahydro-5H-imidazo[4,5-c]pyridin-5-yl)(5-(1-methyl-1H-pyrazol-4-yl)-1,3,4-oxadiazol-2-yl)methanone], the AC50 was less than 0.5 µM.

Turning to `CC(C)c1cccn2nc([C@H]3c4nc[nH]c4CCN3C(=O)c3nnc(-c4cnn(C)c4)o3)cc12` [Example 1887, (R)-(4-(4-isopropylpyrazolo[1,5-a]pyridin-2-yl)-1,4,6,7-tetrahydro-5H-imidazo[4,5-c]pyridin-5-yl)(5-(1-methyl-1H-pyrazol-4-yl)-1,3,4-oxadiazol-2-yl)methanone], the AC50 was greater than 5 µM.

For the molecule `Cn1ccc(-c2nnc(C(=O)N3CCc4[nH]cnc4[C@H]3c3cc4c(Br)cccn4n3)o2)n1` [Example 1889, (S)-(4-(4-bromopyrazolo[1,5-a]pyridin-2-yl)-1,4,6,7-tetrahydro-5H-imidazo[4,5-c]pyridin-5-yl)(5-(1-methyl-1H-pyrazol-3-yl)-1,3,4-oxadiazol-2-yl)methanone], the AC50 is less than 0.5 µM.

Consider `Cc1cccn2nc([C@@H]3c4nc[nH]c4CCN3c3nnc(-c4ccc(F)cc4)o3)cc12` [Example 1891, (S)-2-(4-fluorophenyl)-5-(4-(4-methylpyrazolo[1,5-a]pyridin-2-yl)-1,4,6,7-tetrahydro-5H-imidazo[4,5-c]pyridin-5-yl)-1,3,4-oxadiazole], for which the half-maximal activity concentration (AC50) is less than 0.5 µM.

For the molecule `Fc1ccc(-c2nnc(N3CCc4[nH]cnc4[C@H]3c3cc4c(C(F)(F)F)cccn4n3)o2)cc1` [Example 1893, (S)-2-(4-fluorophenyl)-5-(4-(4-(trifluoromethyl)pyrazolo[1,5-a]pyridin-2-yl)-1,4,6,7-tetrahydro-5H-imidazo[4,5-c]pyridin-5-yl)-1,3,4-oxadiazole], the AC50 was less than 0.5 µM.

On to `CCc1cccn2nc([C@H]3c4nc[nH]c4CCN3C(=O)c3nnc(-c4ccccn4)o3)cc12` [Example 1894, (R)-(4-(4-ethylpyrazolo[1,5-a]pyridin-2-yl)-1,4,6,7-tetrahydro-5H-imidazo[4,5-c]pyridin-5-yl)(5-(pyridin-2-yl)-1,3,4-oxadiazol-2-yl)methanone], for which the AC50 was greater than 5 µM.

For the molecule `O=C(c1nnc(-c2ccccn2)o1)N1CCc2[nH]cnc2[C@@H]1c1cc2c(C3CC3)cccn2n1` [Example 1896, (R)-(4-(4-cyclopropylpyrazolo[1,5-a]pyridin-2-yl)-1,4,6,7-tetrahydro-5H-imidazo[4,5-c]pyridin-5-yl)(5-(pyridin-2-yl)-1,3,4-oxadiazol-2-yl)methanone], the AC50 was greater than 5 µM.

For the molecule `Cc1c(-c2nnc(C(=O)N3CCc4[nH]cnc4[C@H]3c3cc4c(C5CC5)cccn4n3)o2)cnn1C` [Example 1898, (S)-(4-(4-cyclopropylpyrazolo[1,5-a]pyridin-2-yl)-1,4,6,7-tetrahydro-5H-imidazo[4,5-c]pyridin-5-yl)(5-(1,5-dimethyl-1H-pyrazol-4-yl)-1,3,4-oxadiazol-2-yl)methanone], the AC50 was less than 0.5 µM.

Turning to `Cc1c(-c2nnc(C(=O)N3CCc4[nH]cnc4[C@@H]3c3cc4c(C5CC5)cccn4n3)o2)cnn1C` [Example 1899, (R)-(4-(4-cyclopropylpyrazolo[1,5-a]pyridin-2-yl)-1,4,6,7-tetrahydro-5H-imidazo[4,5-c]pyridin-5-yl)(5-(1,5-dimethyl-1H-pyrazol-4-yl)-1,3,4-oxadiazol-2-yl)methanone], the AC50 fell in the range of 1 to 5 µM.

With `Cn1ccc(-c2nnc(C(=O)N3CCc4[nH]cnc4[C@H]3c3cc4c(C5CC5)cccn4n3)o2)n1` [Example 1900, (S)-(4-(4-cyclopropylpyrazolo[1,5-a]pyridin-2-yl)-1,4,6,7-tetrahydro-5H-imidazo[4,5-c]pyridin-5-yl)(5-(1-methyl-1H-pyrazol-3-yl)-1,3,4-oxadiazol-2-yl)methanone], the AC50 was less than 0.5 µM.

In the case of `CC(C)c1cccn2nc([C@@H]3c4nc[nH]c4CCN3C(=O)c3nnc(C(C)(C)C)o3)cc12` [Example 1902, (S)-(5-(tert-butyl)-1,3,4-oxadiazol-2-yl)(4-(4-isopropylpyrazolo[1,5-a]pyridin-2-yl)-1,4,6,7-tetrahydro-5H-imidazo[4,5-c]pyridin-5-yl)methanone], the AC50 is less than 0.5 µM.

With `CC(C)c1cccn2nc([C@H]3c4nc[nH]c4CCN3C(=O)c3nnc(-c4ccccn4)o3)cc12` [Example 1904, (R)-(4-(4-isopropylpyrazolo[1,5-a]pyridin-2-yl)-1,4,6,7-tetrahydro-5H-imidazo[4,5-c]pyridin-5-yl)(5-(pyridin-2-yl)-1,3,4-oxadiazol-2-yl)methanone], the AC50 is greater than 5 µM.
